In patent US8940697B2, “Compositions and methods for the treatment of myocardial ischemia/reperfusion injury with Annexin A1 short peptide” (Duke University, priority 2009, dated 2015):
“Also recorded” adds a separate entry of the source. Marks after values point to notes of the source that are not given here. No end group written: not given here.

Columns and labels:
[1] = tested on: NF-kB activation in human pancreatic cancer cell lines; assay: NF-kB activation in human pancreatic cancer cell lines by ANXA1 N-terminus short peptides; type: cell-based; details: compared with the other ANXA1 peptides of FIG. 1
Text: FIG. 1 is a graph showing the effect of ANXA1 N-terminus short peptides Ac-QAW, Ac-KQAW (SEQ ID NO:3), Ac-[…] (SEQ ID NO:10), Ac-FLK, Ac-EFLKQAW (SEQ ID NO:6) and Ac-VSEFLKQAW (SEQ ID NO:9) on NF-kB activation in human pancreatic cancer cell lines. Values presented are means±SD; n=5; *P<0.05 and #P<0.001 vs. control (0). Ac=acetylation.

[2] = tested on: NIH 3T3 cells; assay: LPS-induced NIH 3T3 cells: NF-κB activity, IL-6, cell death; type: cell-based; details: LPS+peptide vs LPS, 0, 1, 3 and 6 hours
Description: FIG. 2A is a graph showing the effect of ANXA1sp on NF-κB activity over time on NIH 3T3 cells activated with LPS alone and LPS+peptide. FIG. 2B is a graph showing the effect of ANXA1sp on interleukin-6 (IL-6) production over time by NIH 3T3 cells activated with LPS alone and LPS+peptide.
The ANXA1sp was next tested in LPS-induced NIH 3T3 cells to determine if NF-κB activity was inhibited. NIH 3T3 cells were exposed to LPS or LPS+ANXA1sp (LPS+Peptide) for 0, 1, 3 and 6 hours. Cell lysates were obtained and levels of NF-κB activity and IL-6 were measured by ELISA. Cell death was also measured by Trypan blue exclusion.

[3] = tested on: adult rat ventricular cardiomyocytes (ARVC); assay: Long-term culture survival of adult rat cardiomyocytes in normal or high glucose; type: cell-based; details: for cardiomyocytes still alive, with rod-shaped morphology: day 26
Text: Cardiomyocytes isolated from adult rats were exposed to ANXAsp (FIG. 3C and FIG. 3D) or the N-terminal 25mer Ac2-26 (FIG. 3E and FIG. 3F) in either normal glucose (NG) or high glucose (HG), respectively, for 26 days, Untreated control cells in normoglycemic and hyperglycemic media are presented in FIG. 3A and FIG. 3B,
(§1) Cardiomyocytes isolated from adult rat in both normal and hyperglycemic culture media were exposed directly to ANXA1sp. […] The cardioprotective effects of ANXA1sp was further examined in hyperglycemic exacerbation of myocardial injury due to simulated ischemia/reperfusion in vitro. Adult rat ventricular cardiomyocytes (ARVCs) were treated with/without either ANXA1sp or Ac2-26 in both normo- and hyperglycemic culture media for 24 hours. Cells were washed with deoxygenated glucose-free DMEM medium in an anaerobic chamber that filtrated a gas mixture of 5% CO2-10% H2-85% N2 and incubated for 2 hours. After oxygen/glucose deprivation (OGD), cells were cultured under normoxic conditions in a 5% CO2 incubator for 24 hours. Cells without OGD were used as a positive control. Cell death was determined by trypan blue exclusive staining. Cells were counted in triplicate wells and in eight random fields in each well.

[4] = tested on: adult rat ventricular cardiomyocytes (ARVC); assay: ARVC simulated I/R (oxygen-glucose deprivation/reoxygenation); type: cell-based; details: for cTnI: 30 μM ANXA1sp, 2 h OGD + 24 h reoxygenation, supernatant; for HFABP / TNFα / Apoptosis / Cell Death: 30 μM, OGD/reoxygenation; for Apoptosis: ELISA; for Cell Death: trypan blue
Description: FIG. 4A. Cells were exposed to normal glucose (NG) (a, e), high glucose (HG) (b, f), HG+ANXA1sp (c, g) and HG+Ac2-26 (d, h), respectively, for 24 hours. Cells (e, f, g, h) were washed with deoxygenated glucose-free DMEM medium in an anaerobic chamber that contained a gas mixture of 5% CO2, 10% H2, and 85% N2 and incubated for 2 hours. After oxygen/glucose deprivation (OGD), ARVC cells were cultured in DMEM medium under normoxic conditions in a 5% CO2 incubator for 24 hours. Cells (a, b, c, d) without OGD were used as a control. Cell death was determined by trypan blue staining. FIG. 4B is a graph of the results obtained in FIG. 4A. Specifically, cells were counted in a total of eight random fields in triplicate wells. Values presented are means±SD; n=8.
as §1
In vitro study: ARVCs from male Sprague-Dawley (SD) rats were incubated in normal or high glucose (25 mM), with and without 30 μM ANXA1sp (Ac-QAW), or with a scrambled peptide (Ac-QWA), respectively for 24 h. Cells were subjected to 2 h oxygen-glucose deprivation (OGD), followed by 24 h reoxygenation in either normo- or hyperglycemic conditions. Cell death was determined histologically (trypan blue exclusion) and biochemically (supernatant levels of cTnI and HFABP, ELISA). Apoptosis was quantified using ELISA (Roche).

[5] = tested on: male SD rats; assay: Rat CPB/CA model of myocardial I/R injury (normo- and hyperglycemic); type: in vivo; details: for NF-κB activity / IL-6 / TNF-α / Caspase-3 / MPO / Apoptosis / HFABP / cTnI: 3 mg/kg total; for NF-κB activity: myocardial DNA binding activity; for NF-κB activity / IL-6 / TNF-α / Caspase-3 / MPO / Apoptosis / HFABP: 24 h; for IL-6 / TNF-α: myocardial tissue; for Caspase-3 / MPO / Apoptosis: myocardium; for Apoptosis: TUNEL; for HFABP / cTnI: plasma; for cTnI: 24 h post-reperfusion
Description: Next, studies were carried out to determine the effectiveness of ANXA1sp on myocardial protection in vivo using a clinically-relevant rodent experimental model of surgical global myocardial ischemia/reperfusion injury. […] Rats were exposed to CPB for 15 minutes before ischemic/reperfusion injury was initiated (i.e., cardioplegic arrest was induced) and maintained for 45 minutes, followed by another 15 minutes of CPB. Animals were weaned from cardiopulmonary bypass and allowed to recover for 24 hours, at which point blood and left ventricular myocardial tissue were harvested for analysis. FIG. 5B is a graph showing the blood glucose levels in rats before and after ischemia. Acute hyperglycemia was induced using dextrose 25% (5 gm/kg) administered preoperatively 0.75 gm intraperitoneally, intraoperatively 0.25 gm in CPB prime and 0.5 gm/hr intravenously, and postoperatively 1 hour after weaning from CPB (intraperitoneally). Perioperative blood glucose levels were maintained at >300 mg/dl. Cardioplegic arrest was induced with cold (4:1) blood cardioplegia. Animals in the AXNA1sp treated group received a total of 3 mg/kg ANXA1sp in 3 equal doses administered before (intraperitoneally), during (intracoronary, mixed with cardioplegia solution), and after CPB (intraperitoneally), respectively. Control animals underwent an identical surgical procedure with vehicle instead of ANXA1sp.
In vivo study: with IACUC approval, male SD rats were randomly assigned to 4 groups in a 2×2 design (n=5/group): normo- and hyperglycemic (20 mM) cardioplegic arrest (CA), each treated with ANXA1sp or vehicle, respectively. All animals underwent 75 min of mild hypothermic CPB (33° C.) with 45 min of CA using blood cardioplegia. Treatment groups received ANXA1sp (Ac-QAW, GenScript, 3 mg/kg total) before (ip), during (with cardioplegia), and after CPB (ip) in equal doses, whereas CA control animals received saline. No animals received insulin. At 24 h post-reperfusion the following efficacy end-points were assessed by investigators blinded to the experimental group: 1) plasma myonecrosis biomarkers—cTnI and HFABP (rat specific ELISA, LifeDiagnostics); 2) myocardial apoptosis—cleaved caspase-3 (immunostaining and Western blot) and TUNEL assays; 3) myocardial inflammation—NF-kB DNA binding activity (ELISA, Panomics) and tissue levels of TNF-α and IL-6 (ELISA, ThermoScientific); and 4) myocardial neutrophil transmigration—myeloperoxidase (MPO) activity (ELISA, ThermoScientific).

[6] = tested on: Male Yorkshire pigs; assay: Pig CPB/CA model of myocardial I/R injury; type: in vivo
Description: Pig CPB/CA: Male Yorkshire pigs (32-38 kg) were subjected to 120 min of mild hypothermic CPB, including 60 min of CA using 4:1 blood cardioplegia, and received either ANXA1sp (iv after anesthesia induction and with each dose of cardioplegia, 4 mg/kg total, CA_SP group, n=4) or vehicle (CA_CTRL, n=8). Efficacy endpoints and underlying mechanisms were assessed as described herein.

[7] = 4 mg/kg, systemically and in the cardioplegia solution

Ac-Gln-Ala-Trp [ANXA1sp]
inhibiting NF-κB activity [1]: most effective at inhibiting NF-κB activity | apoptosis (cell death, Trypan blue exclusion) [2]: inhibited | IL-6 ([2]; ELISA): inhibited | NF-κB activity ([2]; ELISA of cell lysates): inhibited | protection of cardiomyocytes from cell death ([3]; both normo- and hyperglycemic conditions): significantly protected cardiomyocytes from cell death | cardiomyocytes still alive, with rod-shaped morphology ([3]; high glucose): ~50% | cardioprotective effect compared with Ac2-26 ([3]; long-term culture, normal and high glucose): much stronger than that of the commercial annexin A1 N-terminal peptide, Ac2-26 | cardiomyocytes still alive, with rod-shaped morphology ([3]; normal glucose): about 70% | cardiomyocyte cell death (trypan blue) ([4]; 24 h pretreatment, 2 h OGD, 24 h normoxia, Example 3): significantly decreased cardiomyocyte cell death | cTnI ([4]; HG_SP: high glucose (25 mM)): 7.8 ± 0.6 ng/mL | HFABP ([4]; HG_SP: high glucose (25 mM)): 2.0 ± 0.4 ng/mL | TNFα ([4]; HG_SP: high glucose (25 mM)): 1.2 ± 0.1 ng/mg protein | Apoptosis ([4]; HG_SP: high glucose (25 mM)): 0.7 ± 0.2 A.U. | Cell Death ([4]; HG_SP: high glucose (25 mM)): 40.5 ± 11.1 % | cTnI ([4]; NG_SP: normal glucose): 5.7 ± 0.4 ng/mL | HFABP ([4]; NG_SP: normal glucose): 2.4 ± 1.4 ng/mL | TNFα ([4]; NG_SP: normal glucose): 0.84 ± 0.1 ng/mg protein | Apoptosis ([4]; NG_SP: normal glucose): 0.7 ± 0.2 A.U. | Cell Death ([4]; NG_SP: normal glucose): 38.6 ± 5.9 % | cardioprotective efficacy compared with Ac2-26 ([4]; OGD, high glucose, Example 3, FIG. 4): stronger cardioprotective efficacy than Ac2-26 | NF-κB activity ([5]; CAHG_SP: hyperglycemic): 1.5 ± 0.5 A.U. | IL-6 ([5]; CAHG_SP: hyperglycemic): 107.3 ± 15.5 ng/mg | TNF-α ([5]; CAHG_SP: hyperglycemic): 105.6 ± 13.3 ng/mg | Caspase-3 ([5]; CAHG_SP: hyperglycemic): 5.9 ± 1.4 A.U. | MPO ([5]; CAHG_SP: hyperglycemic): 467.2 ± 72.4 ng/mg | Apoptosis ([5]; CAHG_SP: hyperglycemic): 9.5 ± 1.2 % | HFABP ([5]; CAHG_SP: hyperglycemic): 12.4 ± 2.6 ng/mL | cTnI ([5]; CAHG_SP: hyperglycemic): 2.1 ± 0.5 ng/mL | NF-κB activity ([5]; CA_SP: normoglycemic): 0.8 ± 0.04 A.U. | IL-6 ([5]; CA_SP: normoglycemic): 38.2 ± 8.1 ng/mg | TNF-α ([5]; CA_SP: normoglycemic): 28.8 ± 6.7 ng/mg | Caspase-3 ([5]; CA_SP: normoglycemic): 1.9 ± 1.5 A.U. | MPO ([5]; CA_SP: normoglycemic): 104.8 ± 6.6 ng/mg | Apoptosis ([5]; CA_SP: normoglycemic): 2.4 ± 1.1 % | HFABP ([5]; CA_SP: normoglycemic): 1.0 ± 0.3 ng/mL | cTnI ([5]; CA_SP: normoglycemic): 1.0 ± 0.7 ng/mL | myocardial apoptosis (TUNEL) ([5]; Example 4: acute hyperglycemia, 3 mg/kg, FIG. 7B, 3 mg/kg): attenuated; also recorded: significantly decreased | myocardial MPO ([5]; Example 4: acute hyperglycemia, 3 mg/kg, FIG. 8, 3 mg/kg): attenuated; also recorded: significantly decreased | myocardial NF-κB DNA binding activity ([5]; Example 4: acute hyperglycemia, 3 mg/kg, FIG. 9, 3 mg/kg): attenuated; also recorded: significantly decreased | myocardial TNF-α ([5]; Example 4: acute hyperglycemia, 3 mg/kg, FIG. 10A, 3 mg/kg): attenuated; also recorded: significantly decreased | myocardial IL-6 ([5]; Example 4: acute hyperglycemia, 3 mg/kg, FIG. 10B, 3 mg/kg): attenuated; also recorded: significantly decreased | myocardial caspase-3 activity ([5]; Example 4: acute hyperglycemia, 3 mg/kg, Western blot, FIG. 7A, 3 mg/kg): attenuated; also recorded: significantly decreased | myonecrosis biomarker HFABP ([5]; Example 4: acute hyperglycemia, 3 mg/kg, vs CAHG, FIG. 6B, 3 mg/kg): attenuated; also recorded: significantly decreased | hyperglycemic exacerbation of perioperative myocardial injury ([5]; Example 4: cardioplegic arrest and acute hyperglycemia, 3 mg/kg): attenuated | myonecrosis biomarker cTnI ([5]; Example 4: cardioplegic arrest and acute hyperglycemia, 3 mg/kg, vs CAHG, FIG. 6A, 3 mg/kg): attenuated; also recorded: significantly decreased | in vivo interaction between ANXA1 and NF-κB p65 subunit ([5]; co-immunoprecipitation and confocal co-localization in cardiomyocytes, FIG. 11): significantly induces; also recorded: strongly induced | hemodynamics ([6]; 4 mg/kg total): improved hemodynamics | animals requiring inotropic or vasopressor support ([6]; 4 mg/kg total, support substantial in all control animals): none requiring either inotropic or vasopressor support | left ventricular dysfunction [6, 7]: significant reduction | postoperative arrhythmias [6, 7]: significant reduction | vasoplegia [6, 7]: significant reduction | Apoptosis ([6]; CA_SP: 4 mg/kg total): 5.9 ± 2.3 % | Epinephrine (inotropic support required) ([6]; CA_SP: 4 mg/kg total): 0** mcg/6 hs | Heart Rate ([6]; CA_SP: 4 mg/kg total): 135 ± 18 beats/min | NF-κB activity ([6]; CA_SP: 4 mg/kg total): 0.8 ± 0.04 A.U. | SVI (stroke volume index) ([6]; CA_SP: 4 mg/kg total): 36 ± 5 ml/m^2 | TNF-α ([6]; CA_SP: 4 mg/kg total): 28.8 ± 6.7 ng/mg protein | Vasopressin (vasopressor support required) ([6]; CA_SP: 4 mg/kg total): 0** U/6 hrs | Caspase-3 ([6]; CA_SP: 4 mg/kg total, iv and with cardioplegia): 137.3 ± 9.8 A.U.

Ac-Ala-Met-Val-Ser-Glu-Phe-Leu-Lys-Gln-Ala-Trp-Phe-Ile-Glu-Asn-Glu-Glu-Gln-Glu-Tyr-Val-Gln-Tyr-Val-Lys (Ac-AMVSEFLKQAWFIENEEQEYVQYVK) [Ac2-26, commercial annexin A1 N-terminal 25mer peptide, reference compound]
rod-shaped cardiomyocytes found ([3]; normal and hyperglycemic media, beyond day 14): no rod-shaped cardiomyocytes were found
